In patent US11780893B2, “Kv1.3 blockers” (Zealand Pharma A/S, priority 2019, dated 2023):
Bridge positions count the residues as written; N and C are the ends. Square brackets hold non-standard residues; d marks the D form. Peptide text beside a SMILES is read from it. Phe(4-NH2) = Nc1ccc(C[C@H](N)C(=O)O)cc1; Nle = CCCC[C@H](N)C(=O)O

Experiments:
Kv1.6 = target: T1, Kv1.6 (Homo sapiens, UniProt P17658); assay: cell-based; conditions: for IC50: CHO cells, whole-cell patch clamp, read-out: Potency IC50 (nM) Kv1.6; for Selectivity Kv1.6/Kv1.3: ratio IC50[Kv1.6]/IC50[Kv1.3]
T1 construct: expressed in transfected cells; host or cells: Chinese Hamster Ovary (CHO)
T1 sequence (P17658 whole entry): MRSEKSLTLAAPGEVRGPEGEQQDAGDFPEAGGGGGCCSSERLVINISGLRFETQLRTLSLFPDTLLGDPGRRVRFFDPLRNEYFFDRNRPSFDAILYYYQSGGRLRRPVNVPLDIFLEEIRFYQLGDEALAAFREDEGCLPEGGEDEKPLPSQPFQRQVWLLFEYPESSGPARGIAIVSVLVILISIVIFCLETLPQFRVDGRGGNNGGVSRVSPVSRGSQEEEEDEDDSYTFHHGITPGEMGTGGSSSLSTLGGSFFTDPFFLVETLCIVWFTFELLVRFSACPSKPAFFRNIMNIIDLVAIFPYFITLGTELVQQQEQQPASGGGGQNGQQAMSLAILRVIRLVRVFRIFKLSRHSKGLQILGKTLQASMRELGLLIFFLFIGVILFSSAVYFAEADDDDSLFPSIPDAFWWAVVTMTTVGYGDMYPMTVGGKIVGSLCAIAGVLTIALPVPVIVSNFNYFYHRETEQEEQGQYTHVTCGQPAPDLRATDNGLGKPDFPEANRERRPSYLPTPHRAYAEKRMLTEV

Kv1.2 = target: T2, Kv1.2 (Homo sapiens, UniProt P16389); assay: cell-based; conditions: CHO cells, whole-cell patch clamp; read-out: Potency IC50 (nM) Kv1.2
T2 construct: expressed in transfected cells; host or cells: Chinese Hamster Ovary (CHO)
T2 sequence (P16389 whole entry): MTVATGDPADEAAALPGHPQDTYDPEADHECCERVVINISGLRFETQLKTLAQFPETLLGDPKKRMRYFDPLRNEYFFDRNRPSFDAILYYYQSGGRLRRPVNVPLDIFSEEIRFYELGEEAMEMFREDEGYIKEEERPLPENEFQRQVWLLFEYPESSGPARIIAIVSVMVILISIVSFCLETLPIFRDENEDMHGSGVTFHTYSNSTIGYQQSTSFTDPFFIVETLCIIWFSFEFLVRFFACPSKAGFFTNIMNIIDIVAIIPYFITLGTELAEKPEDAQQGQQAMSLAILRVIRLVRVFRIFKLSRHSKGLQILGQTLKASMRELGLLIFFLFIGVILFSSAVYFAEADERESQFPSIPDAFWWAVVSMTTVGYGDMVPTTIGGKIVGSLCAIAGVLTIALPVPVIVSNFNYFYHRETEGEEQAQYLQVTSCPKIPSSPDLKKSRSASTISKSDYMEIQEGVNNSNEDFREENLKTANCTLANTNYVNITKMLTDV

Kv1.1 = target: T3, Kv1.1 (Homo sapiens, UniProt Q09470); assay: cell-based; conditions: for IC50: CHO cells, whole-cell patch clamp, read-out: Potency IC50 (nM) Kv1.1; for Selectivity Kv1.1/Kv1.3: ratio IC50[Kv1.1]/IC50[Kv1.3]
T3 construct: expressed in transfected cells; host or cells: Chinese Hamster Ovary (CHO)
T3 sequence (Q09470 whole entry): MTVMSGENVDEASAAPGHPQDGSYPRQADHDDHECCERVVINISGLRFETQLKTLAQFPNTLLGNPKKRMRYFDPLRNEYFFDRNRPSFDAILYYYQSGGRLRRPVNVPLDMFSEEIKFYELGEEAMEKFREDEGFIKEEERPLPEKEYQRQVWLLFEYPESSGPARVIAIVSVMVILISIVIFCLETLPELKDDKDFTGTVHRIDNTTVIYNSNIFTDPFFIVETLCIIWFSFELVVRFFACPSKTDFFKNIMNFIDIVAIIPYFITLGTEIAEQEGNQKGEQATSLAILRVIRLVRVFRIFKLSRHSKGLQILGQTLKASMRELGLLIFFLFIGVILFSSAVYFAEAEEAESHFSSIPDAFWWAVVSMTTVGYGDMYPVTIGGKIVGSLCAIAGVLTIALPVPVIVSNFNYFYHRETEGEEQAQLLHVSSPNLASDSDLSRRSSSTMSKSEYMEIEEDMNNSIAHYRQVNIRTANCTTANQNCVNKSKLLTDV

Kv1.3 = target: T4, Kv1.3 (Homo sapiens, UniProt P22001); assay: cell-based; conditions: CHO cells, whole-cell patch clamp; read-out: Potency IC50 (nM) Kv1.3
T4 construct: expressed in transfected cells; host or cells: Chinese Hamster Ovary (CHO)
T4 sequence (P22001 whole entry): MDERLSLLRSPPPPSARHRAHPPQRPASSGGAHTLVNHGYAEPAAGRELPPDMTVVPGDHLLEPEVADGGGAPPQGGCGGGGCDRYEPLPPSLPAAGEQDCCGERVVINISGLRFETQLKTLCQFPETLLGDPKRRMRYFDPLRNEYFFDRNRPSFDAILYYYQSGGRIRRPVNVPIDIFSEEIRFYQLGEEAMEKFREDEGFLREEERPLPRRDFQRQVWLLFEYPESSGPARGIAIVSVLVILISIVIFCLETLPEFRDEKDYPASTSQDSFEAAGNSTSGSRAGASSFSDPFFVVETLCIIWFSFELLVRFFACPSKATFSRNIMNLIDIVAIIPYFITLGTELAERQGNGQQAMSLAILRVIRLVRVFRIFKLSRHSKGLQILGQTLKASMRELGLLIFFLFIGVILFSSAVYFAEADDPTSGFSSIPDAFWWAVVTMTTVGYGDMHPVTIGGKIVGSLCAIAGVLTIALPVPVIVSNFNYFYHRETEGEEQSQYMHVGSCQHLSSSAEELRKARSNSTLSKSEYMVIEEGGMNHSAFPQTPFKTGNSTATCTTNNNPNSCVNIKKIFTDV

Rat whole blood = Rat whole blood (Rattus norvegicus, UniProt P15384)
Sequence of Rat whole blood (P15384 whole entry): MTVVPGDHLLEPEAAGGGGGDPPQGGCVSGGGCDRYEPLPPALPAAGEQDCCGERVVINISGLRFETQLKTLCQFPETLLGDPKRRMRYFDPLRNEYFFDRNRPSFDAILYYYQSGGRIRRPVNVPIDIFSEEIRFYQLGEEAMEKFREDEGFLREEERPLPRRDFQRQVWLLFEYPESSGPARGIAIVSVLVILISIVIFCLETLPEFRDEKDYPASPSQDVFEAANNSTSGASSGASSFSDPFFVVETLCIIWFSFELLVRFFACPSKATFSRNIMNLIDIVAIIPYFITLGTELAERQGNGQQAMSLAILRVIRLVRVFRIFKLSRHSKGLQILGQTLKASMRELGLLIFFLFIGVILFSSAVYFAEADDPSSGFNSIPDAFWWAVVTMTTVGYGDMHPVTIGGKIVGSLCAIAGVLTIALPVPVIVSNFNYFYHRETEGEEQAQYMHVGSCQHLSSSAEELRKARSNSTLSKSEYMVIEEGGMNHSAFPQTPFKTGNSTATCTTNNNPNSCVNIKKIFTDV

[1] = target: T5, human Kv1.3 voltage-gated K+ channel (Homo sapiens, UniProt P22001); assay: cell-based; conditions: inhibition of thallium flux, CHO-DUKX cells with human Kv1.3; read-out: IC50
T5 construct: host or cells: CHO-DUKX
T5 sequence (P22001 whole entry): as the sequence (P22001 whole entry) above

Row | SMILES | IC50 (Kv1.6) [nM] | IC50 (Kv1.2) [nM] | IC50 (Kv1.1) [nM] | Selectivity Kv1.1/Kv1.3 (Kv1.1) | IC50 (Kv1.3) [nM] | IC50 (Rat whole blood) [nM] | IC50 [1] [nM] | Selectivity Kv1.6/Kv1.3 (Kv1.6)
1 | CCCC[C@@H]1NC(=O)[C@@H]2CSSC[C@H](NC(=O)[C@H](CCCNC(=N)N)NC(=O)[C@H](CCCC)NC(=O)[C@H](CC(=O)O)NC(=O)[C@H](CCCC)NC(=O)[C@@H](N)CC(N)=O)C(=O)N[C@@H](CO)C(=O)N[C@@H](C)C(=O)N[C@@H](CO)C(=O)N[C@@H](C(C)C)C(=O)N[C@@H](CCC(=O)O)C(=O)N[C@H]3CSSC[C@H](NC(=O)[C@H](CCCCN)NC(=O)[C@H](CCCCN)NC(=O)[C@H](CC(N)=O)NC1=O)C(=O)N[C@@H](CCCCN)C(=O)N[C@H](C(=O)N[C@@H](Cc1ccc(O)cc1)C(=O)N1CCC[C@H]1C(=O)N[C@@H](CCCNC(=N)N)C(N)=O)CSSC[C@H](NC(=O)[C@H](CCCCN)NC(=O)[C@H](CCC(N)=O)NC(=O)[C@H](CCCCN)NC3=O)C(=O)N[C@@H](CCCCN)C(=O)N[C@@H](C)C(=O)N[C@@H]([C@@H](C)CC)C(=O)NCC(=O)N[C@@H](CO)C(=O)N[C@@H]([C@@H](C)CC)C(=O)N[C@@H](Cc1ccccc1)C(=O)NCC(=O)N[C@@H](CCCCN)C(=O)N2 [Compound 49] (H-N[Nle]D[Nle]RCSASVECKQKCKAIGSIFGKC[Nle]NKKCKCYPR-NH2; disulfide 6-26, 12-31, 16-33) | 946 | 164 | > 3000 | >2200 | 1.34 | ≤ 1 | 0.36 | –
2 | CCCC[C@@H]1NC(=O)[C@@H]2CSSC[C@H](NC(=O)[C@H](CCCNC(=N)N)NC(=O)[C@H](CCCC)NC(=O)[C@H](CC(=O)O)NC(=O)[C@H](CCCC)NC(=O)[C@@H](N)CC(N)=O)C(=O)N[C@@H](CO)C(=O)N[C@@H](C)C(=O)N[C@@H](CO)C(=O)N[C@@H](C(C)C)C(=O)N[C@@H](CCC(=O)O)C(=O)N[C@H]3CSSC[C@H](NC(=O)[C@H](CCCCN)NC(=O)[C@H](CCCCN)NC(=O)[C@H](CC(N)=O)NC1=O)C(=O)N[C@@H](CCCCN)C(=O)N[C@H](C(=O)N[C@@H](Cc1ccc(O)cc1)C(=O)N1CCC[C@H]1C(=O)N[C@@H](CCCNC(=N)N)C(N)=O)CSSC[C@H](NC(=O)[C@H](CCCCN)NC(=O)[C@H](CCC(N)=O)NC(=O)[C@H](CCCCN)NC3=O)C(=O)N[C@@H](CC(C)C)C(=O)N[C@@H](CCCCN)C(=O)N[C@@H](C)C(=O)N[C@@H]([C@@H](C)CC)C(=O)NCC(=O)N[C@@H](CO)C(=O)N1CCC[C@H]1C(=O)N[C@@H](Cc1ccccc1)C(=O)NCC(=O)N[C@@H](CCCCN)C(=O)N2 [Compound 62] (H-N[Nle]D[Nle]RCSASVECKQKCLKAIGSPFGKC[Nle]NKKCKCYPR-NH2; disulfide 6-27, 12-32, 16-34) | 2350 | 449 | > 3000 | >11600 | 0.26 | ≤ 1 | 0.13 | –
3 | CCCC[C@@H]1NC(=O)[C@@H]2CSSC[C@H](NC(=O)[C@H](CCCNC(=N)N)NC(=O)[C@H](CCCC)NC(=O)[C@H](CC(=O)O)NC(=O)[C@H](CCCC)NC(=O)[C@@H](N)CC(N)=O)C(=O)N[C@@H](CO)C(=O)N[C@@H](C)C(=O)N[C@@H](CO)C(=O)N[C@@H](CCCCN)C(=O)N[C@@H](CCC(=O)O)C(=O)N[C@H]3CSSC[C@H](NC(=O)[C@H](CCCCN)NC(=O)[C@H](CCCCN)NC(=O)[C@H](CC(N)=O)NC1=O)C(=O)N[C@@H](CCCCN)C(=O)N[C@H](C(=O)N[C@@H](Cc1ccc(O)cc1)C(=O)N1CCC[C@H]1C(=O)N[C@@H](CCCNC(=N)N)C(N)=O)CSSC[C@H](NC(=O)[C@H](CCCCN)NC(=O)[C@H](CCC(N)=O)NC(=O)[C@H](CCCCN)NC3=O)C(=O)N[C@@H](CC(C)C)C(=O)N[C@@H](CCCCN)C(=O)N[C@@H](C)C(=O)N[C@@H]([C@@H](C)CC)C(=O)NCC(=O)N[C@@H](CO)C(=O)N[C@@H]([C@@H](C)CC)C(=O)N[C@@H](Cc1ccccc1)C(=O)NCC(=O)N[C@@H](CCCCN)C(=O)N2 [Compound 63] (H-N[Nle]D[Nle]RCSASKECKQKCLKAIGSIFGKC[Nle]NKKCKCYPR-NH2; disulfide 6-27, 12-32, 16-34) | 1230 | 184 | > 3000 | >9600 | 0.31 | ≤ 1 | 0.13 | –
4 | CCCC[C@H](NC(=O)[C@H](CC(=O)O)NC(=O)[C@H](CCCC)NC(=O)[C@@H](N)CO)C(=O)N[C@@H](CCCNC(=N)N)C(=O)N[C@H]1CSSC[C@@H]2NC(=O)[C@H](CCCCN)NC(=O)CNC(=O)[C@H](Cc3ccccc3)NC(=O)[C@H]([C@@H](C)CC)NC(=O)[C@H](CO)NC(=O)CNC(=O)[C@H]([C@@H](C)CC)NC(=O)[C@H](C)NC(=O)[C@H](CCCCN)NC(=O)[C@H](CC(C)C)NC(=O)[C@@H]3CSSC[C@@H](C(=O)N[C@@H](Cc4ccc(N)cc4)C(=O)N4CCC[C@H]4C(=O)N[C@@H](CCCNC(=N)N)C(N)=O)NC(=O)[C@H](CCCCN)NC(=O)[C@H](CSSC[C@H](NC(=O)[C@H](CCC(=O)O)NC(=O)[C@H](C(C)C)NC(=O)[C@H](CO)NC(=O)[C@H](C)NC(=O)[C@H](CO)NC1=O)C(=O)N[C@@H](CCCCN)C(=O)N[C@@H](CCC(N)=O)C(=O)N[C@@H](CCCCN)C(=O)N3)NC(=O)[C@H](CCCCN)NC(=O)[C@H](CCCCN)NC(=O)[C@H](CC(N)=O)NC(=O)[C@H](CCSC)NC2=O [Compound 70] (H-S[Nle]D[Nle]RCSASVECKQKCLKAIGSIFGKCMNKKCKC[Phe(4-NH2)]PR-NH2; disulfide 6-27, 12-32, 16-34) | > 3000 | 423 | > 3000 | >12200 | 0.25 | ≤ 1 | 0.13 | >12200
5 | CCCC[C@H](NC(=O)[C@H](CC(=O)O)NC(=O)[C@H](CCCC)NC(=O)[C@@H](N)CO)C(=O)N[C@@H](CCCNC(=N)N)C(=O)N[C@H]1CSSC[C@@H]2NC(=O)[C@H](CCCCN)NC(=O)CNC(=O)[C@H](Cc3ccccc3)NC(=O)[C@H]([C@@H](C)CC)NC(=O)[C@H](CO)NC(=O)CNC(=O)[C@H]([C@@H](C)CC)NC(=O)[C@H](C)NC(=O)[C@H](CCCCN)NC(=O)[C@H](CC(C)C)NC(=O)[C@@H]3CSSC[C@@H](C(=O)N[C@@H](Cc4ccc(O)cc4)C(=O)N4CCC[C@H]4C(=O)N[C@@H](CCCNC(=N)N)C(N)=O)NC(=O)[C@H](CCCCN)NC(=O)[C@H](CSSC[C@H](NC(=O)[C@H](CCC(=O)O)NC(=O)[C@H](C(C)C)NC(=O)[C@H](CO)NC(=O)[C@H](C)NC(=O)[C@H](CO)NC1=O)C(=O)NCC(=O)N[C@@H](CCC(N)=O)C(=O)N[C@@H](CCCCN)C(=O)N3)NC(=O)[C@H](CCCCN)NC(=O)[C@H](CCCCN)NC(=O)[C@H](CC(N)=O)NC(=O)[C@H](CCSC)NC2=O [Compound 71] (H-S[Nle]D[Nle]RCSASVECGQKCLKAIGSIFGKCMNKKCKCYPR-NH2; disulfide 6-27, 12-32, 16-34) | > 3000 | 373 | > 3000 | >27700 | 0.11 | ≤ 1 | 0.1 | >27700
6 | CCCC[C@H](NC(=O)[C@@H](N)CO)C(=O)N[C@@H](CC(=O)O)C(=O)N[C@@H](CCC(=O)O)C(=O)N[C@@H](CCCNC(=N)N)C(=O)N[C@H]1CSSC[C@@H]2NC(=O)[C@H](CCCCN)NC(=O)CNC(=O)[C@H](Cc3ccccc3)NC(=O)[C@H]([C@@H](C)CC)NC(=O)[C@H](CO)NC(=O)CNC(=O)[C@H]([C@@H](C)CC)NC(=O)[C@H](C)NC(=O)[C@H](CCCCN)NC(=O)[C@H](CC(C)C)NC(=O)[C@@H]3CSSC[C@@H](C(=O)N[C@@H](Cc4ccc(O)cc4)C(=O)N4CCC[C@H]4C(=O)N[C@@H](CCCNC(=N)N)C(N)=O)NC(=O)[C@H](CCCCN)NC(=O)[C@H](CSSC[C@H](NC(=O)[C@H](CCC(=O)O)NC(=O)[C@H](C(C)C)NC(=O)[C@H](CO)NC(=O)[C@H](C)NC(=O)[C@H](CO)NC1=O)C(=O)N[C@@H](CCCCN)C(=O)N[C@@H](CCC(N)=O)C(=O)N[C@@H](CCCCN)C(=O)N3)NC(=O)[C@H](CCCCN)NC(=O)[C@H](CCCCN)NC(=O)[C@H](CC(N)=O)NC(=O)[C@H](CCSC)NC2=O [Compound 76] (H-S[Nle]DERCSASVECKQKCLKAIGSIFGKCMNKKCKCYPR-NH2; disulfide 6-27, 12-32, 16-34) | > 3000 | 122 | > 3000 | >10600 | 0.28 | ≤ 1 | 0.093 | >10600
